Patent US20030068663A1, “Method and kit for measuring skin inflammation or irritation” (priority 2001, published 2003)
Several values for one entry are separate records, joined by “and”; a condition that tells them apart may be missing. Equal entries are not always repeated.

Columns and labels:
[1] = system: PGE2 expressed on the skin surface; assay: PGE2 on skin surface 24 h after 4 h Hill Top chamber exposure, Sebutape collection, immunoassay; assay type: in vivo, human; details: for Normalized levels of PGE2, Average: average of 10 panelists; for Normalized levels of PGE2: individual panelists 1-10
Description: Assay Designs, Inc. PGE2 Enzyme Immunoassay:
(§1) 1. Baseline (corresponding to an untreated control) levels of PGE2 contained in secretions present on the skin surface were measured along the lower volar forearms of test panelists by placing a mild adhesive-coated microporous plastic film, Sebutape® (Cuderm Corporation, Dallas, Tex.), on the skin with the adhesive side down, making direct contact with the skin. The Sebutape® was removed from the skin after 1 minute and then placed in a vial containing 500 μL saline. This Sebutape® collection process was repeated three more times with a 1-minute contact time for each Sebutape®. The collected samples were stored at −70 ° C. until analysis (described below).
(§2) 2. Hill Top chambers® (Hill Top Research, Cincinnati, Ohio) containing 400 μL of the test fluid (deionized or tap water) were applied to the lower volar forearms of the test panelists. After 4 hours of exposure, the Hill Top chambers® were removed and the test sites were rinsed with tap water and patted dry.
(§3) 3. Twenty four hours after the Hill Top chambers® were removed and the arm was rinsed and patted dry, skin secretions containing PGE2 expressed on the skin surface were collected using the Sebutape absorption method described previously in Step #1 above.
The collected Sebutape® samples were analyzed using the following methods. After thawing, the samples were sonicated for 15 minutes and vortexed vigorously. The solutions, containing extracted proteins and eicosanoids, were analyzed for levels of PGE2 via immunoassay (Assay Designs High Sensitivity PGE2 Enzyme Immunoassay #93001) and levels of total protein using the bicinchoninic acid (BCA) protein assay (Kit #23225, Pierce Chemical Company, Rockford, Ill.).
Four Sebutape® samples were taken from each test site. The measured levels of PGE2 (in pg/mL) were normalized against the total amount of protein (in μg/mL) extracted from each Sebutape® strip. The four normalized values were then averaged to determine the levels of PGE2 (in pg/μg) expressed for each test site. To account for person-to-person variability, PGE2 levels, for each panelist were further normalized relative to the levels of PGE2 measured for the untreated control.
The method of Example 1 was extended to measure the level of inflammation or irritation elicited by a dilute solution (8% w/w in deionized water) of a mild facial cleanser (Neutrogena Fresh Foaming Cleanser, Neutrogena Corporation, Los Angeles, California) compared to that of deionized water.

[2] = system: IL-1α expressed on the skin; assay: IL-1α on skin surface after Hill Top chamber exposure to SLS solutions, Sebutape collection, ELISA; assay type: in vivo, human
Description: Endogen, Inc. Interleukin-1α ELISA
as §1, §2, §3
The level of irritation caused by dilute solutions of SLS as a function of SLS concentration was assessed using the method described in Example 1, with the exception that the level of Interleukin-1α(IL-1α) was used to assess the degree of irritation, rather than PGE2. The levels of IL-1α were measured via immunoassay (Human IL-1αKit #EH2-IL1a, Endogen, Inc., Woburn. Mass.). As with PGE2, the measured levels of IL-1α(in pg/mL) were normalized against the total amount of protein (in μg/mL) extracted from each Sebutape® strip. To account for person-to-person variability, IL-1α levels for each treatment site were further normalized using the baseline levels of IL-1α measured for the untreated control.

Normalized levels of PGE2, Average ([1]; Example 3, cleanser as 8% w/w in deionized water) | Normalized levels of PGE2, Average ([1]; 4 h chamber on volar forearm, collected 24 h later) | SMILES | Normalized levels of PGE2 ([1]; Example 3, cleanser as 8% w/w in deionized water, 4 h chamber) | Normalized levels of PGE2 ([1]; 400 μL fluid, 4 h chamber on volar forearm, collected 24 h later, normalized to protein and untreated control) | Levels of IL-1α ([2]; 5 w/w % SLS in deionized water) | Levels of IL-1α ([2]; 10 w/w % SLS in deionized water) | Levels of IL-1α ([2]; 20 w/w % SLS in deionized water)
1.53 dimensionless units | 0.86 dimensionless units | O [Deionized Water] | 1.49 dimensionless units and 2.12 dimensionless units and 1.25 dimensionless units and 1.60 dimensionless units and 1.77 dimensionless units and 1.45 dimensionless units and 1.98 dimensionless units and 1.48 dimensionless units and 1.30 dimensionless units and 0.83 dimensionless units | 0.92 dimensionless units and 0.84 dimensionless units and 0.93 dimensionless units and 1.71 dimensionless units and 1.01 dimensionless units and 0.94 dimensionless units and 0.40 dimensionless units and 0.56 dimensionless units and 0.62 dimensionless units and 0.69 dimensionless units | – | – | –
– | – | CCCCCCCCCCCCOS(=O)(=O)[O-].[Na+] [SLS, sodium lauryl sulfate] | – | – | 2.83 dimensionless units | 2.71 dimensionless units | 1.00 dimensionless units
